Experiments:
[1] = molecular target: T1, NK2 (Homo sapiens, UniProt P21452); assay: NanoBiT cytosolic Ca^2+ response, NK2; type: cell-based; settings: HEK293 cells, NK2, Calmodulin-SmBiT/LgBiT-MYLK2S, luminescence
T1 construct: expressed in transfected cells; host or cells: HEK293
T1 sequence (P21452 1-398): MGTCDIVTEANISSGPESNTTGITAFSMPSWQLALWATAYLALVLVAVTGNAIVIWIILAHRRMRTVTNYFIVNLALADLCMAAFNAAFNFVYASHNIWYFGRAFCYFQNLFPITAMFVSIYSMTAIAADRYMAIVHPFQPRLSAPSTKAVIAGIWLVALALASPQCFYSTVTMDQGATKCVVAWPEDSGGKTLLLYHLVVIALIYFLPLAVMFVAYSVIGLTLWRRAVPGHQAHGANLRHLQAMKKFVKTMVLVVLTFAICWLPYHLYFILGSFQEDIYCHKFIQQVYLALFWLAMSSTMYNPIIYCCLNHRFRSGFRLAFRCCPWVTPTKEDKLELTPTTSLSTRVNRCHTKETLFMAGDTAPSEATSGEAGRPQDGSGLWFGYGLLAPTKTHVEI
Procedure: NKs have been extensively studied, especially with respect to neuropeptide-stimulated Ca^2+ responses. Recently, we developed a real-time calcium assay based on NanoBiT and the Ca^2+-dependent interaction of calmodulin and its target proteins to analyze NK-mediated cellular responses. First, neuropeptide-stimulated luciferase activation was measured in cells expressing NKs and calcium probes to determine the suitability of our assay method. […] Next, the activation efficiency of receptors by each peptide was investigated on Ca^2+ responses based on NanoBiT assay.
NanoLuc Binary Technology (NanoBiT) was utilized to investigate protein–protein interaction. HEK293 cells were seeded in a 96-well white plate at a density of 2 × 10^4 cells per well. The following day, cells were transfected with 50 ng of each plasmid containing SmBiT- or LgBiT- tagged genes using 0.2 µl Lipofectamine 2000 (Invitrogen, Carlsbad, CA, USA). […] Baseline luminescence was measure for 10 min using a SpectraMax L plate reader (Molecular Devices, San Jose, CA, USA). After stimulation with ligands, the luminescence signal was continuously measured for 1 h.
Cytosolic Ca^2+ changes were detected using a NanoBiT system as described previously. […]

[2] = molecular target: T2, NK1 (Homo sapiens, UniProt P25103); assay: NanoBiT β-arrestin1 recruitment to NK1 (NK1-SmBiT/β-arr1-LgBiT); type: cell-based
T2 construct: expressed in transfected cells; host or cells: HEK293
T2 sequence (P25103 whole entry): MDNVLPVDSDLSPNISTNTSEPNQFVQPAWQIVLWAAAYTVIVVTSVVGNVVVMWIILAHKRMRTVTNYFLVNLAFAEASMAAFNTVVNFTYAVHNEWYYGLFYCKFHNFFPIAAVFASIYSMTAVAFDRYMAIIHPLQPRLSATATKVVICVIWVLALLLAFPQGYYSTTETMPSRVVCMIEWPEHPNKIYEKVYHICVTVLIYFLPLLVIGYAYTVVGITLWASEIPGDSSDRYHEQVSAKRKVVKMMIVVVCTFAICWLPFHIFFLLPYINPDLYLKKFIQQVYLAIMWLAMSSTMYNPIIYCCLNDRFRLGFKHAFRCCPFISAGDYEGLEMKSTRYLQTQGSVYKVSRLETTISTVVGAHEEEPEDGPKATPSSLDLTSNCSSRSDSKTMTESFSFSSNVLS
Procedure: (§1) Ligand-stimulated β-arrestin recruitment to receptors was also examined using the NanoBiT system. The NanoBiT system was used to create construct combinations of receptors and β-arrestin, which were tagged with either SmBiT or LgBiT at N- or C-terminal. These constructs were then expressed in HEK293 cells.
(§2) NanoLuc Binary Technology (NanoBiT) was utilized to investigate protein–protein interaction. HEK293 cells were seeded in a 96-well white plate at a density of 2 × 10^4 cells per well. The following day, cells were transfected with 50 ng of each plasmid containing SmBiT- or LgBiT- tagged genes using 0.2 µl Lipofectamine 2000 (Invitrogen, Carlsbad, CA, USA). To investigate the effect of one receptor on another receptor in β-arrestin recruitment, 100 ng of un-tagged receptor was co-transfected with 50 ng of each of NanoBiT-tagged plasmid and mixed with 0.4 µl Lipofectamine 2000. At 24 h after transfection, the medium was changed to 100 µl of Opti-MEM and the plate was stabilized at room temperature for 10 min before adding NanoBiT substrate. If an inhibitor was used, it was pre-incubated at 37 ℃ for 20 min and at room temperature for 10 min before substrate addition. Baseline luminescence was measure for 10 min using a SpectraMax L plate reader (Molecular Devices, San Jose, CA, USA). After stimulation with ligands, the luminescence signal was continuously measured for 1 h.

[3] = system: NK2; assay: NanoBiT β-arrestin1 recruitment to NK2 (NK2-LgBiT/β-arr1-SmBiT); type: cell-based; settings: for effect of aprepitant on NKA-stimulated β-arrestin1 recruitment: 10 nM NKA
Procedure: as §1, §2

[4] = cited from earlier work
[5] = system: human colorectal cancer cell DLD-1; settings: cited from earlier work
Excerpt: Although some studies have reported that NK1 and NK2 are expressed in some cancers, the role of NK2 in cancer remains controversial.

[6] = molecular target: Neurokinin-1 receptor, C-terminal SmBiT- or LgBiT-tagged (UniProt P25103 1-407); assay: cell-based or functional assay
Neurokinin-1 receptor, C-terminal SmBiT- or LgBiT-tagged, sequence (P25103 whole entry): as above

CSCC[C@H](NC(=O)[C@H](CC(C)C)NC(=O)CNC(=O)[C@@H](NC(=O)[C@H](Cc1ccccc1)NC(=O)[C@H](Cc1ccccc1)NC(=O)[C@H](CC(=O)O)NC(=O)[C@H](Cc1c[nH]cn1)NC(=O)[C@H](CCSC)NC(=O)[C@@H](N)CC(=O)O)C(C)C)C(N)=O [NKB, neurokinin B]
EC50 [1]: 0.24 nM

C[C@@H](O[C@H]1OCCN(Cc2n[nH]c(=O)[nH]2)[C@H]1c1ccc(F)cc1)c1cc(C(F)(F)F)cc(C(F)(F)F)c1 [aprepitant]
SP-stimulated luciferase activities in the presence of aprepitant and intact NK2 ([2]; NK1-SmBiT/β-arr1-LgBiT + intact NK2, 1 μM aprepitant 30 min, 1 μM SP): slightly increased by SP even in the presence of the inhibitor
NKA-stimulated luciferase activities in the presence of aprepitant and intact NK2 ([2]; NK1-SmBiT/β-arr1-LgBiT + intact NK2, aprepitant 30 min, 10 nM NKA): slightly increased by NKA in the presence of aprepitant
effect of aprepitant on SP-stimulated β-arrestin1 recruitment ([2]; NK1-SmBiT/β-arr1-LgBiT, 1 μM aprepitant 30 min, 1 μM SP): completely inhibited
effect of aprepitant on NKA-stimulated β-arrestin1 recruitment ([2]; NK1-SmBiT/β-arr1-LgBiT, aprepitant 30 min, 10 nM NKA): inhibited
effect of aprepitant on SP-stimulated NK2/β-arrestin1 interaction ([3]; NK2-LgBiT/β-arr1-SmBiT + intact NK1, 10 nM SP, aprepitant): inhibited luciferase activities
effect of aprepitant on NKA-stimulated β-arrestin1 recruitment ([3]; NK2-LgBiT/β-arr1-SmBiT + intact NK1, aprepitant 30 min): not downregulated
effect of aprepitant on SP-stimulated β-arrestin1 recruitment ([3]; NK2-LgBiT/β-arr1-SmBiT, 1 μM aprepitant 30 min, 1 μM SP): not affected
effect of aprepitant on NKA-stimulated β-arrestin1 recruitment ([3]; NK2-LgBiT/β-arr1-SmBiT, aprepitant 30 min): not influenced
antitumor activity [4]: antitumor activities through promoting apoptotic mechanisms
effect on AKT/mTOR and Wnt/β-catenin signaling pathways [5]: suppression of AKT/mTOR and Wnt/β-catenin signaling pathways

B1: Neurokinin-2 receptor, C-terminal SmBiT- or LgBiT-tagged (receptor, UniProt P21452 1-398, looked up)
chain: MGTCDIVTEANISSGPESNTTGITAFSMPSWQLALWATAYLALVLVAVTGNAIVIWIILAHRRMRTVTNYFIVNLALADLCMAAFNAAFNFVYASHNIWYFGRAFCYFQNLFPITAMFVSIYSMTAIAADRYMAIVHPFQPRLSAPSTKAVIAGIWLVALALASPQCFYSTVTMDQGATKCVVAWPEDSGGKTLLLYHLVVIALIYFLPLAVMFVAYSVIGLTLWRRAVPGHQAHGANLRHLQAMKKFVKTMVLVVLTFAICWLPYHLYFILGSFQEDIYCHKFIQQVYLALFWLAMSSTMYNPIIYCCLNHRFRSGFRLAFRCCPWVTPTKEDKLELTPTTSLSTRVNRCHTKETLFMAGDTAPSEATSGEAGRPQDGSGLWFGYGLLAPTKTHVEI
EC50 of SP for recruitment of β-arrestin1-SmBiT to NK2-LgBiT (NanoBiT luciferase) with intact NK1 co-expressed [6]: 164 nM

— paper PMC10652611 (Cell & Bioscience, 2023)
